The text below walks through data of publication PMC9917735, “Optimization of the Hemolysis Assay for the Assessment of Cytotoxicity” (International Journal of Molecular Sciences, 2023).

Like-named read-outs stand apart in the source and are kept apart here. No end group written: not given here.

For one data set, the system named is human whole blood. The conditions noted are these: human whole blood, 60 min 37 °C; for Calculated hemolysis ratio: peptides 100 μM, neg. PBS, 3 x 2 replicates.
Data set [1] relates to washed human erythrocytes. The data set is described as follows: Hemolysis assay, washed human erythrocytes.
Data set [2] deals with washed human erythrocytes. The data set is described as follows: Flow cytometry of treated erythrocytes with live/dead amine-reactive stain. The format is cell-based. The conditions noted are these: washed human erythrocytes treated 60 minutes, AMPs 100 μM, amine-reactive dye 488, flow cytometry 533/30 nm. As to the method:
Briefly, a 1% washed erythrocyte solution was diluted to ~10^5 cells/mL and 0.4% Trypan blue (1:1 ratio) was added before 10 μL of the stained cell suspension was added to the Countess cell counting chamber slide. After a 30 s incubation, the slide was inserted into the instrument for automatic cell counting.
The Countess II automated cell counter (see above) was used to adjust the negative control sample to ~10^5 cells/mL and to subsequently dilute all samples by the same factor. Then, 0.5 μL of live/dead amine-reactive dye 488 (Fisher Scientific, Waltham, MA, USA) was added to 0.5 mL cell suspension and incubated for 30 min protected from light. Subsequently, the samples were washed twice with PBS pH 7 containing 1% bovine serum albumin (BSA), and finally resuspended in PBS pH 7 with 1% BSA. Cells were next counted, and the fluorescence measured using the 533/30 nm filter in an Accuri C6 flow cytometer (BD Biosciences, Franklin Lakes, NJ, USA).
Background: Flow cytometry measures light scatter and fluorescence of single cells or particles in a stream.

For a further data set, the system named is rabbit whole blood. The conditions noted are these: cf. Tables S3 and S4; 100 μM. From the text: (§1) Cytotoxicity studies are important during characterization of novel compounds or materials intended for interactions within human biological systems in vivo. Evaluation of the extent to which the compound induces disruption of the membrane of erythrocytes (red blood cells), thereby causing release of cellular content, often constitutes an initial step in such cytotoxicity assessments. The assay used in this context is generally referred to as the hemolysis assay, which has the advantages of being cheap, accessible, and simple to perform. Blood is drawn from a human or an animal, and next, the washed erythrocytes are incubated together with the compound or material under investigation. If the compound causes hemolysis, hemoglobin (along with other cellular constituents) will be released into the supernatant.
(§2) Blood from mice, rats, and rabbits was provided by the Department of Comparative Medicine at Oslo University Hospital (Marianne Aannestad). For mice and rats, the blood was collected from the heart by using 25 G and 21 G needles, respectively, whereas for rabbits, the blood was collected by free bleed through the ear using a yellow neoflon (24 G). All animals were wild type and anesthetized prior to the procedure.
(§3) All blood was collected in Lithium Heparin tubes 4 mL (Greiner Bio-One, Kremsmünster, Austria) or Coagulation sodium citrate 3.2% tubes 3 mL (Greiner Bio-One).
(§4) AMP 2 contained an N-terminal hexanoic acid moiety, whereas all peptides contained amidated C-termini. These three peptides were synthesized by Genscript Inc. (Piscataway, NJ, USA), and stock solutions of 1 mg/mL were made from the purchased powders. […] All peptides were diluted to yield a 100 μM final concentration in the hemolysis assays.
(§5) Triton X-100 (T8787) and Tween-20 (P2287) detergents were purchased from Sigma Aldrich and diluted to obtain 10% stock solutions by weighing (w/v). A sodium Dodecyl Sulfate (SDS) 10% solution was purchased from Invitrogen (Waltham, MA, USA, 15553027). All subsequent dilutions annotated in figures were made from these stocks.
(§6) As soon as possible after phlebotomy, the blood samples were centrifuged at 1700× g for 5 min. The supernatant was removed by aspiration and 2 mL of PBS pH 7 was added. The washing step was repeated three times or until the supernatant was clear. After final aspiration, the remaining pellet was diluted 1:100 in PBS pH 7 to obtain a 1% erythrocyte suspension (or 1:100, 1:50, and 1:20 for assays testing the effect of erythrocyte concentration). For experiments using whole blood, the washing steps were not performed, but downstream experimentation was identical. For experiments performed with 96-well plates, 50 μL of test compound, water, or detergent were mixed with 50 μL of blood sample (1% erythrocyte suspension or whole blood). For experiments using larger volumes, 250 μL of test compound, water, or detergent were mixed with 250 μL blood sample in an Eppendorf tube. Samples were subsequently incubated at 37 °C for 60 min (or 15, 30, 60, 90, or 120 min for assays evaluating the effect of incubation time). After incubation, the plates/tubes were centrifuged at 1700× g for 5 min, and then 50 μL of the supernatants were transferred to transparent, flat-bottom 96-well plates (Anicrin, A013418). Finally, absorption was measured at 405, 530, and 570 nm in a Victor Nivo Multimode microplate reader (Perkin Elmer, Waltham, MA, USA).

Another data set relates to rat erythrocytes. As to conditions: Table S4: washed rat erythrocytes, OD 405 nm, AMPs 100 μM, 1 hour 37 °C, pos. 10% Triton X-100, neg. PBS; 3 x 2 replicates.
Source text: as §1, §2, §3, §4, §5, §6

Another data set concerns rabbit erythrocytes. The conditions noted are these: Table S4: washed rabbit erythrocytes, OD 405 nm, AMPs 100 μM, 1 hour 37 °C, pos. 10% Triton X-100, neg. PBS; 3 x 2 replicates.
Source text: as §1, §2, §3, §4, §5, §6

A further data set concerns mouse erythrocytes. The conditions noted are these: Table 1, 1% erythrocytes, 100 µM.
Source text: as §1, §2, §3, §4, §5, §6

The mark [3] stands for this setting: 10% detergent, highest absorbance.
[4] abbreviates: human individual # 1, 1% erythrocytes, AMPs 100 µM, 60 min 37 °C, 405 nm, pos. 10% Triton X, neg. PBS, 3 x 2 replicates.
Setting [5] is: human individual # 2, 1% erythrocytes, AMPs 100 µM, 60 min 37 °C, 405 nm, pos. 10% Triton X, neg. PBS, 3 x 2 replicates.
Where [6] appears, read: human individual # 3, 1% erythrocytes, AMPs 100 µM, 60 min 37 °C, 405 nm, pos. 10% Triton X, neg. PBS, 3 x 2 replicates.
[7] abbreviates: human individual # 4, 1% erythrocytes, AMPs 100 µM, 60 min 37 °C, 405 nm, pos. 10% Triton X, neg. PBS, 3 x 2 replicates.
The mark [8] stands for this setting: human individual # 5, 1% erythrocytes, AMPs 100 µM, 60 min 37 °C, 405 nm, pos. 10% Triton X, neg. PBS, 3 x 2 replicates.
Setting [9] is: human individual # 6, 1% erythrocytes, AMPs 100 µM, 60 min 37 °C, 405 nm, pos. 10% Triton X, neg. PBS, 3 x 2 replicates.
The mark [10] stands for this setting: human individual # 7, 1% erythrocytes, AMPs 100 µM, 60 min 37 °C, 405 nm, pos. 10% Triton X, neg. PBS, 3 x 2 replicates.
Setting [11] is: human individual # 8, 1% erythrocytes, AMPs 100 µM, 60 min 37 °C, 405 nm, pos. 10% Triton X, neg. PBS, 3 x 2 replicates.
[12] abbreviates: human individual # 9, 1% erythrocytes, AMPs 100 µM, 60 min 37 °C, 405 nm, pos. 10% Triton X, neg. PBS, 3 x 2 replicates.
Where [13] appears, read: human individual # 10, 1% erythrocytes, AMPs 100 µM, 60 min 37 °C, 405 nm, pos. 10% Triton X, neg. PBS, 3 x 2 replicates.

Turning to `CCCCCCCCCCCCOS(=O)(=O)[O-].[Na+]` [SDS, Sodium Dodecyl Sulfate, reference compound], in the data set on human whole blood (setting [3]), the “Absorbance of free hemoglobin at 530 nm” value stood at 2.2 and the “Absorbance of free hemoglobin at 570 nm” value was determined as 1.7. In addition, the “Peak OD of free hemoglobin” value in data set [1] (at 0.02% detergent, human erythrocytes, decreases at higher concentrations (Figure S3)) is 0,8.
On to `O` [dH2O, distilled water], for which the “Fluorescence intensity per cell of remaining intact cells (live/dead stain)” value in data set [2] is on record as “low fluorescence”. For the same compound, the Calculated hemolysis ratio is reported as 98.2 ± 0.4% with human whole blood (OD 405 nm (signal saturated), pos. 10% SDS); 38.4 ± 8.5% with human whole blood (OD 530 nm, pos. 10% SDS); 62.8 ± 1.4% in the data set with human whole blood (OD 570 nm, pos. 10% Triton X-100 (table title; text says 10% SDS)); 67.6 ± 8.7% in data set [1] (1% washed human erythrocytes, OD 530 nm, peptides 100 μM, 60 min 37 °C, pos. 10% Triton X-100, neg. PBS, 3 x 2 replicates); 32.6 ± 7.3% in data set [1] (Table 2: pooled blood from all 10 individuals, 1% erythrocytes, AMPs 100 µM, 60 min 37 °C, 405 nm, pos. 10% Triton X, neg. PBS, 3 x 2 replicates); 37.1 ±14.2% in data set [1] (Table 4: incubation 60 min, 37 °C, 1% human erythrocytes, AMPs 100 µM, 405 nm, pos. 10% Triton X-100, neg. PBS, 3 biological x 2 technical replicates). Further, the Calculated hemolysis ratio in data set [1] (Table 6: 1% washed human erythrocytes, OD 405 nm, peptides 100 μM, 60 min 37 °C, pos. 10% Triton X-100, neg. PBS, 3 x 2 replicates) is recorded as 73.9 ± 7.5%; in data set [1] (setting [4]), 38 ± 12.3%; in data set [1] (setting [5]) it was 57.7 ± 12.2%; in data set [1] (setting [6]), 50.8 ± 8.8%; in data set [1] (setting [7]), 47.2 ± 5.6%; in data set [1] (setting [8]), 38.8 ± 12.1%. Moreover, the Calculated hemolysis ratio is 36.2 ± 10.8% in data set [1] (setting [9]); 49.6 ± 15.2% in data set [1] (setting [10]); 49.4 ± 16.9% in data set [1] (setting [11]); 49.1 ± 22.5% in data set [1] (setting [12]); 39.4 ± 10.7% in data set [1] (setting [13]); 29.5 ± 6% in data set [1] (incubated in polypropylene tubes, 1% washed human erythrocytes, peptides 100 μM, 60 min 37 °C, 405 nm, pos. 10% Triton X-100, neg. PBS, 3 x 2 replicates). Also, the Calculated hemolysis ratio was 43.1 ± 18.6% in data set [1] (incubated in polystyrene tubes, 1% washed human erythrocytes, peptides 100 μM, 60 min 37 °C, 405 nm, pos. 10% Triton X-100, neg. PBS, 3 x 2 replicates); 32.8 ± 12.1% in data set [1] (incubation 15 min, 37 °C, 1% human erythrocytes, AMPs 100 µM, 405 nm, pos. 10% Triton X-100, neg. PBS, 3 biological x 2 technical replicates); 34.8 ± 12.7% in data set [1] (incubation 30 min, 37 °C, 1% human erythrocytes, AMPs 100 µM, 405 nm, pos. 10% Triton X-100, neg. PBS, 3 biological x 2 technical replicates); 40.1 ±13.9% in data set [1] (incubation 90 min, 37 °C, 1% human erythrocytes, AMPs 100 µM, 405 nm, pos. 10% Triton X-100, neg. PBS, 3 biological x 2 technical replicates); 47 ± 13.6% in data set [1] (incubation 120 min, 37 °C, 1% human erythrocytes, AMPs 100 µM, 405 nm, pos. 10% Triton X-100, neg. PBS, 3 biological x 2 technical replicates); 43.1 ± 18.6% in data set [1] (total incubation volume 100 μL, 1% washed human erythrocytes, peptides 100 μM, 60 min 37 °C, 405 nm, pos. 10% Triton X-100, neg. PBS, 3 x 2 replicates). For the same compound, the Calculated hemolysis ratio in data set [1] (total incubation volume 500 μL, 1% washed human erythrocytes, peptides 100 μM, 60 min 37 °C, 405 nm, pos. 10% Triton X-100, neg. PBS, 3 x 2 replicates) is 31.4 ± 10.7%. In addition, the “Calculated Hemolysis (%)” value in data set [1] (2% pooled human erythrocytes, AMPs 100 µM, 60 min 37 °C, 405 nm, pos. 10% Triton X-100, neg. PBS, 3 x 2 replicates) was 27.1 ± 2.7%; in data set [1] (5% pooled human erythrocytes, AMPs 100 µM, 60 min 37 °C, 405 nm, pos. 10% Triton X-100, neg. PBS, 3 x 2 replicates) it was 22.7 ± 9%; in data set [1] (Table 3: 1% pooled human erythrocytes, AMPs 100 µM, 60 min 37 °C, 405 nm, pos. 10% Triton X-100, neg. PBS, 3 x 2 replicates), 32.6 ± 7.3%.
Take “MNLVDRAILIRKRRRAALQLRDKVLRYLK-NH2 [AMP 1]”: the “Minimum inhibitory concentration (E. coli)” value with E. coli is 2 µM. In addition, the “Fold difference in HR at 120 min incubation relative to the shortest incubation times” value in data set [1] (1% washed human erythrocytes, 405 nm, Table 4) was found to be 1.65 fold. In addition, the Calculated hemolysis ratio is listed as 21.9 ± 4% in data set [1] (setting [4]); 23 ± 2.8% in data set [1] (setting [5]); 23.7 ± 2.1% in data set [1] (setting [6]); 21.3 ± 3% in data set [1] (setting [7]); 19.7 ± 3.7% in data set [1] (setting [8]); 19.6 ± 4.7% in data set [1] (setting [9]). For the same compound, the Calculated hemolysis ratio is recorded as 18.8 ± 4% in data set [1] (setting [10]), 21.7 ± 8.6% in data set [1] (setting [11]), 22.9 ± 6.8% in data set [1] (setting [12]) and 25.1 ± 13% in data set [1] (setting [13]). Also, in data set [1] (reason for choice of the AMPs), the “Observed hemolytic properties (qualitative)” value was “medium”. In addition, the “Fold decrease of hemolytic effect in rabbit whole blood vs washed rabbit erythrocytes” value with rabbit whole blood was “slightly increased hemolytic effect”. The Hemolysis ratio with rat erythrocytes is 12.9 +/- 1.7%; with rabbit erythrocytes, 7.1 +/- 1.1%. Also, the “HR in mouse sample compared to rabbit sample” value with mouse erythrocytes is “over four times higher”.
Regarding Tween-20 [reference compound], in the data set on human whole blood (melittin 100 μM), the “Blood clotting in whole blood” value was “tendency of the blood to clot at higher Tween concentrations”.
